{"source": "patent US20250268166A1", "about": "“ALS-INHIBITOR HERBICIDE TOLERANT BETA VULGARIS HYBRIDS WITH INCREASED HETEROSIS” (BAYER AKTIENGESELLSCHAFT, priority 2021, published 2025)", "tested_on": "B. vulgaris plants comprising the BvALS_W569L allele", "assay": "Sensitivity of B. vulgaris plants to ALS inhibitor herbicide (BvALS_W569L allele vs wild type allele)", "assay_type": "in vivo, Beta vulgaris", "from_the_text": "Beta vulgaris plants comprising the BvALS_W569L allele are less sensitive to an ALS inhibitor, more preferably it is at least 100 times less sensitive, more preferably, 500 times, even more preferably 1000 times and most preferably […] 2000 times than Beta vulgaris plants comprising the wild-type allele. Less sensitive when used herein may, vice versa, be seen as “more tolerable” or “more resistant”. Similarly, “more tolerable” or “more resistant” may, vice versa, be seen as “less sensitive”. For example, B. vulgaris plants comprising the BvALS_W569L allele are at least 2000 times less sensitive to the ALS inhibitor herbicide foramsulfuron (a member of the ALS inhibitor subclass “sulfonylurea herbicides”) compared to B. vulgaris plants comprising a BvALS wild type allele."}
{"smiles": "COc1cc(OC)nc(NC(=O)NS(=O)(=O)c2cc(NC=O)ccc2C(=O)N(C)C)n1", "note": "[foramsulfuron]", "values": [{"measurement": "times less sensitive to the ALS inhibitor herbicide compared to B. vulgaris plants comprising a BvALS wild type allele", "value": "at least 2000 times"}]}
